Some results are limits rather than exact numbers.

From ChEMBL document CHEMBL4610057, “Benzopyrimidodiazepinone inhibitors of TNK2” (Bioorg Med Chem Lett, 2020) come the findings set out here.

Series [1] is described as follows: Metabolic stability in mouse liver microsomes assessed as parent compound remaining measured after 60 mins. In kind it is ADME, Microsome. (Microsomes from liver hold many membrane-bound enzymes, among them those of drug oxidation.)
The conditions of series [2]: mouse, microsomes.
Series [3] can be described thus: in vivo. To be noted: CD1, mouse, iv, 3 mg/kg.
Series [4] is described as follows: in vivo. To be noted: CD1, mouse, iv, 3 mg/kg. The source holds these as a separate data set.
The nature of series [5]: in vivo. To be noted: CD1, mouse, po, 10 mg/kg.
Series [6] is described as follows: in vivo. To be noted: CD1, mouse, po, 10 mg/kg. The source holds these as a separate data set.
Series [7] in a line: in vitro. To be noted: mouse, hepatocytes.
A short description of series [8]: in vitro. To be noted: mouse, liver microsomes.

Regarding `COc1cc(N2CCN(C)CC2)ccc1Nc1ncc2c(n1)N(C)c1ccccc1C(=O)N2`, in series [1] (microsomes, 1 h), the Stability is on record as 2%. Besides, in series [2], the t1/2 worked out at 0.467 h. Further, the clearance – broadly, the rate of elimination divided by the concentration – in series [3] was 150 mL/min/kg. Further, the values for the half-life in series [4] and in series [7] were 0.7 h and 5.78 h, respectively. Further, the bioavailability (usually dose-corrected exposure relative to a reference, in per cent) in series [5] was determined as 5%. For the same compound, in series [6], the AUC(0-inf) (commonly the area under the concentration-time curve extrapolated to infinity) worked out at 56 ng·h/mL.
Regarding `COc1cc(N2CCN(C)CC2)ccc1Nc1ncc2c(n1)N(C)c1ccccc1C(=O)N2C`, the remaining at 1 h in series [1] (liver microsomes, read-out: Stability) turned out to be 40%. This compound also displayed a clearance in series [3] of 25 mL/min/kg. Moreover, the results for the half-life in series [4], in series [8] and in series [7] were 4.4 h, 0.367 h and above 8.33 h, respectively. This compound also had a bioavailability in series [5] of 46%. In series [6], this compound displayed an AUC(0-inf) of 2000 ng·h/mL.
In series [3], `COc1cc2c(cc1Nc1ccc(Nc3ncc4c(n3)N(C)c3ccccc3C(=O)N4)cc1)CCN(C)C2` returned a clearance of 120 mL/min/kg. For the same compound, in series [4], the half-life (as a rule, the time in which the quantity being followed falls by half) is 10 h. In series [5], the bioavailability was 7%. For the same compound, in series [6], the area under the curve AUC(0-inf) turned out to be 125 ng·h/mL.
